# Assay results taken from patent publication US20260008768A1, “UREA DERIVATIVES FOR INHIBITING NLRP3 AND USES THEREOF” (VENTUS THERAPEUTICS U.S., INC., priority 2023, published 2026).
# Key:
# [1] = biological target: T1, human NLRP3 (Homo sapiens, UniProt Q96P20); test: Human PBMC NLRP3 Assay (LPS priming, ATP stimulation, cytokine measurement); assay type: cell-based; set-up: host or cells: human PBMCs (A2); human whole blood from healthy volunteers (A3); conditions: human PBMC, LPS + ATP
# Method: Reagents: Human PBMCs (Normal): iXCells Cat #10HU-003; RPMI 1640 medium with GlutaMAX: ThermoFisher Cat #61870127 (Complete Media: 4.5 g/L D-glucose, 10% FBS, 100 mM NaPyr, 1% Pen/Strep, 10 mM HEPES and 0.05 mM of ®-mercaptoethanol; Assay Media: 4.5 g/L D-glucose, 100 mM NaPyr, 1% Pen/Strep, 10 mM HEPES and 0.05 mM of mercaptoethanol; 96-well V-bottom Plates: Costar Cat #3894; LPS (E. coli O26:B6): Sigma Cat #L2654, stock 5 mg/mL in PBS; ATP: Sigma Cat #A6419, prepared in a 250 mM stock in 1 M HEPES (adjusted to pH 7.4).
# Cryopreserved PBMCs were rapidly thawed in a 37° C. water bath for 2 min. Cells were then centrifuged at 1200 RPM for 5 min and resuspended in ˜50 mL of fresh RPMI 1640 Complete Medium. A count was undertaken using a hemocytometer and adjusted to 2.5×10^5 cells/mL. V-shaped 96-well plates were seeded with 200 μL of PBMCs (5×10^4) per well and subsequently incubated overnight at 37° C. with 5% CO2. Assay Media was then prepared containing 100 ng/ml of LPS. PBMCs were then centrifuged at 1,200 RPM for 5 min, serum containing media was aspirated, and 150 μL/well of Assay Media+LPS was immediately added. Assay Media without LPS was added in the untreated control wells. Cells were then primed with LPS for 4 h at 37° C. with 5% CO2. A concentration response curve (CRC) was prepared of 1000× test compound in 100% DMSO. The CRC was then diluted 1:50 in Assay Media and then further diluted by 1:5× in Assay Media resulting in a final 4×CRC in 0.4% DMSO/Assay Media. 50 μL/well of 4× test compound CRC or vehicle (0.4% DMSO/Assay Media) was then transferred into each well and subsequently incubated for 30 min at 37° C. with 5% CO2. Cells were stimulated by adding 4 μL of 250 mM ATP, using a 250 mM stock prepared in 1 M Hepes without further dilution (for a final concentration of 5 mM), for 1 h at 37° C. with 5% CO2 Plates were then centrifuged at 1200 RPM for 5 min; and 50 μl of the media was transferred to a clean 96-well storage plate for cytokine measurements using the mesoscale platform, and stored at −80° C. until analyzed. Compounds were added 30 minutes before priming the cells with LPS when TNFα was required to be quantified in the cytokine panel to confirm selectivity.
# PBMC NLRP3 IC50 assay results, as a measurement of cellular potency, are provided in Table B. “A” activity=<0.01 uM; “B” activity=0.01-0.1 uM; “C” activity=>0.1-0.5 uM; “D” activity=>0.5 uM.
# [2] = biological target: T1, human NLRP3; test: Human Whole Blood (hWB) NLRP3 Assay (LPS/ATP, IL-1β); assay type: cell-based; set-up: host or cells: human whole blood from healthy volunteers (A3)
# Method: Human whole blood is drawn from healthy volunteers after obtaining written informed consent. Heparin lithium coated tubes are used to collect blood from volunteers. Blood samples are distributed on 96 well plates using 90 μl per well.
# Priming procedure: Priming is performed by adding 5 μl of LPS (O26:B6; Sigma L-2654) at a final concentration of 1 μg/ml for 4.5 hours in a humidified incubator with 37° C., 5% CO2. Thirty minutes prior to NLRP3 activation, 5 μl of a 20× compound solution or vehicle (2% dimethylsulfoxide (DMSO)) is added to each well and plates were incubated on a shaker (450 rpm) in a humidified incubator with 37° C., 5% CO2.
# Alternative priming procedure: Thirty minutes prior to LPS priming, 5 μl of a 20× compound solution or vehicle (2% dimethylsulfoxide (DMSO)) is added to each well and plates were incubated on a shaker (450 rpm) in a humidified incubator with 37° C., 5% CO2. Priming is performed by adding 5 μl of LPS (O26:B6; Sigma L-2654) at a final concentration of 1 μg/ml for 5 hours in a humidified incubator with 37° C., 5% CO2.
# Activation is then performed by adding 3.3 μl of a 31×ATP solution per well. At the end of the 30 minutes stimulation, the plates are centrifuged (800 g, 10 min, room temperature) and the plasma from each well is frozen at −80° C. IL-1β levels in the supernatant were analyzed using a mesoscale discovery assay (MSD K151TUK) according to the manufacturers' instructions.
# There is no detectable difference in assay results using the priming procedure versus the alternative priming procedure.
# hWB NLRP3 IC50 assay results, as a measurement of whole blood potency, are provided in Table B. “A” activity=<1 uM; “B” activity=1-2 uM; “C” activity=>2-3 uM; “D” activity=>3 uM.
# [3] = biological target: T1, human NLRP3; test: Scintillation Proximity (SPA) NLRP3 Assay, displacement of 3H-MCC950; assay type: binding; conditions: displacement of 3H-MCC950 from human NLRP3
# In short: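 Displacement of radioligand 3H-MCC950 (125 nM final) from 350 nM human NLRP3, read by scintillation proximity after 6 h equilibration with PVT beads. Buffer: 20 mM HEPES pH 7.5, 150 mM NaCl, 5 mM MgCl2, 100 μM ADP; compound preincubated 15 min, ligand 60 min, RT. IC50 from specific binding.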
# T1 sequence (Q96P20 whole entry): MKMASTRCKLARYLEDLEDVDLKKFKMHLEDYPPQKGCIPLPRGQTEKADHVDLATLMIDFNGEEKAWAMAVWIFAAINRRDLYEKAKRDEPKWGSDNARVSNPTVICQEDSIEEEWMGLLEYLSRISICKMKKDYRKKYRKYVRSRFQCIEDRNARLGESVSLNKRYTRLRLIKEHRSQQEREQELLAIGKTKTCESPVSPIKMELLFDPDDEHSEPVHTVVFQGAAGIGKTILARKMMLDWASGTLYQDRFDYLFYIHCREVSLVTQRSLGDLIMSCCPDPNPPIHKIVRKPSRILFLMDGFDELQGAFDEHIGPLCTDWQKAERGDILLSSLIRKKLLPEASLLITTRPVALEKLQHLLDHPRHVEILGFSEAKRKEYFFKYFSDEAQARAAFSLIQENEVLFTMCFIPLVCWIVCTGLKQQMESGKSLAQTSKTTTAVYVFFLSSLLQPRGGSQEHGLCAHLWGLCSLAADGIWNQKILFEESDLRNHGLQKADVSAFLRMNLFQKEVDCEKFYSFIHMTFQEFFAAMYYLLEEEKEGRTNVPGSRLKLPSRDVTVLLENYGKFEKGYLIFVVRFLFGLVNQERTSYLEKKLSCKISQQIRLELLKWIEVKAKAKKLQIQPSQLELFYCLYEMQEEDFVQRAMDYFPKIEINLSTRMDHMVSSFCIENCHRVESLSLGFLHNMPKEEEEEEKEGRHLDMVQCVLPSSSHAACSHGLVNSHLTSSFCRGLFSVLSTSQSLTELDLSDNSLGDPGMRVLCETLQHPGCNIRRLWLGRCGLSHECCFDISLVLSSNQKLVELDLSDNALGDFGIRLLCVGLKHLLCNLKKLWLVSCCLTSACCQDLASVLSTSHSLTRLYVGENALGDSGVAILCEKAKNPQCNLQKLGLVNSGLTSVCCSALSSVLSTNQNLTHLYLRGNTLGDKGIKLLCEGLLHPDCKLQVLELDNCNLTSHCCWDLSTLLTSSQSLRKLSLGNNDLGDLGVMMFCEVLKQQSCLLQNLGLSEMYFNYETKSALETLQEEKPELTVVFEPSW
SMILES,"IC50 ([1]; Table B, activity class) [nM]","IC50 ([2]; Table B, activity class) [nM]","IC50 ([3]; Table B, activity class) [nM]",IC50 ([1]; Table C) [nM],IC50 ([2]; Table C) [nM],IC50 ([3]; Table C) [nM]
"C[C@@H]1C[C@@H](NC(=O)N(C)c2c(F)cc(C3CC3)cc2F)[C@H]2CC[C@@H]1N2c1nnn[nH]1 (single isomer, unassigned) [60A*]",< 10,< 1000,< 1000,,,
"C[C@@H]1C[C@@H](NC(=O)N(C)c2c(F)cc(OC(F)F)cc2F)[C@H]2CC[C@@H]1N2c1nnn[nH]1 (single isomer, unassigned) [61A*]",< 10,< 1000,< 1000,,,
"C[C@@H]1CCN(c2nnn[nH]2)C[C@H](NC(=O)N(C)c2ccc(C(F)(F)F)cc2F)C1 (single isomer, unassigned) [13A*]",< 10,< 1000,< 1000,5.6,200,550
"C[C@@H]1CCN(c2nnn[nH]2)C[C@H](NC(=O)N(C)c2ccc(OC(F)F)c(F)c2)C1 (single isomer, unassigned) [15A*]",< 10,< 1000,< 1000,,,
"C[C@@H]1C[C@@H](NC(=O)N(C)c2ccc(C3CC3)c(F)c2)[C@H]2CC[C@@H]1N2c1nnn[nH]1 (single isomer, unassigned) [54A*]",< 10,< 1000,< 1000,,,
"C[C@@H]1C[C@@H](NC(=O)N(C)c2ccc(C(F)(F)F)c(F)c2)[C@H]2CC[C@@H]1N2c1nnn[nH]1 (single isomer, unassigned) [49A*]",10 to 100,1000 to 2000,< 1000,,,
"C[C@@H]1C[C@@H](NC(=O)N(C)c2ccc(OC(F)F)c(F)c2)[C@H]2CC[C@@H]1N2c1nnn[nH]1 (single isomer, unassigned) [52A*]",10 to 100,< 1000,< 1000,,,
"C[C@@H]1C[C@@H](NC(=O)N(C)c2c(F)cc(OC(F)(F)F)cc2F)[C@H]2CC[C@@H]1N2c1nnn[nH]1 (single isomer, unassigned) [62A*]",10 to 100,< 1000,< 1000,,,
"C[C@@H]1C[C@@H](NC(=O)N(C)c2ccc(C(F)(F)F)c(F)c2F)[C@H]2CC[C@@H]1N2c1nnn[nH]1 (single isomer, unassigned) [47A*]",,1000 to 2000,< 1000,,,

# Results, then the molecule that gave them:
"IC50 ([1]; Table B, activity class) [nM]","IC50 ([2]; Table B, activity class) [nM]","IC50 ([3]; Table B, activity class) [nM]",IC50 ([1]; Table C) [nM],IC50 ([2]; Table C) [nM],IC50 ([3]; Table C) [nM],SMILES
10 to 100,> 3000,< 1000,,,,"C[C@@H]1CCN(c2nnn[nH]2)C[C@H](NC(=O)N(C)c2ccc(OC(F)(F)F)c(F)c2F)C1 (single isomer, unassigned) [26A*]"
< 10,< 1000,< 1000,,,,"C[C@@H]1CCN(c2nnn[nH]2)C[C@H](NC(=O)N(C)c2ccc(C3CC3)c(F)c2)C1 (single isomer, unassigned) [23A*]"
< 10,< 1000,< 1000,7.9,260,110,"C[C@@H]1CCN(c2nnn[nH]2)C[C@H](NC(=O)N(C)c2ccc(OC(F)(F)F)cc2F)C1 (single isomer, unassigned) [24A*]"
< 10,1000 to 2000,< 1000,,,,"C[C@@H]1CCN(c2nnn[nH]2)C[C@H](NC(=O)N(C)c2ccc(OC(F)F)c(OC(F)F)c2)C1 (single isomer, unassigned) [16A*]"
< 10,< 1000,< 1000,,,,"C[C@@H]1CCN(c2nnn[nH]2)C[C@H](NC(=O)N(C)c2ccc(C(F)F)cc2F)C1 (single isomer, unassigned) [18A*]"
< 10,< 1000,< 1000,,,,"CCN(C(=O)N[C@@H]1C[C@H](C)CCN(c2nnn[nH]2)C1)c1ccc(OC(F)(F)F)cc1 (single isomer, unassigned) [43A*]"
,1000 to 2000,< 1000,,,,"C[C@@H]1CCN(c2nnn[nH]2)C[C@H](NC(=O)N(C)c2ccc(OC(F)(F)F)c(OC(F)F)c2)C1 (single isomer, unassigned) [25A*]"
,1000 to 2000,< 1000,,,,"C[C@@H]1CCN(c2nnn[nH]2)C[C@H](NC(=O)N(C)c2ccc(C(F)F)c(F)c2)C1 (single isomer, unassigned) [22A*]"
